This is an account of results in patent US10919941B2, “Functional lipid constructs” (KODE BIOTECH LIMITED, priority 2007, dated 2021).

No end group written: not given here.

What all share (type): cell-based, human
The test system of test [1] is Miltenberger antibody positive sera. As to the kind of experiment: BioVue AHG card column agglutination serology of modified red blood cells. Set-up: key: 0 or ‘−’ no agglutination; 0 or ‘−’ no agglutination; 1+ or 3=very weak agglutination; 1+ or 3=very weak agglutination; 2+ or 5=weak agglutination; 2+ or 5=weak agglutination; 3+ or 8=moderate strong agglutination; 3+ or 8=moderate strong agglutination; 4+ or 10/12=strong agglutination; 4+ or 10/12=strong agglutination; 4+ or 10/12=strong agglutination. Conditions: construct 50 μg/ml. As to the method:
Red blood cells are modified by mixing 1 part by volume of washed packed red blood cells with 1 part by volume of peptide-lipid construct dispersed at a concentration of 10 to 1000 pg/ml in cell media (Celpresol™).
(§1) The suspensions are either: • 1. incubated for 2 hours at 37° C. before being washed and suspended in a cell medium for serological analysis at a concentration of 0.8 to 3% (Method 1); or • 2. incubated for 3 to 4 hours at room temperature (circa 25° C.) followed by 18 hours at 4° C. before being washed and suspended in a cell medium for serological analysis at a concentration of 0.8 to 3% (Method 2).
(§2) Serological reactions are graded or scored by either of two established systems (0 or ‘−’ no agglutination, 1+ or 3=very weak agglutination, 2+ or 5=weak agglutination, 3+ or 8=moderate strong agglutination, 4+ or 10/12=strong agglutination)
Serological platforms used are Tube (addition of reagents and reactants into plastic or glass serology tubes and after appropriate incubations, washing and centrifugation observing reactions macroscopically by eye and a 10× magnification eyepiece and scoring) and BioVue™ (addition of reactants into cassettes containing beads (including some reactants) and after appropriate incubations and centrifugation observing the reaction patterns trapped within the Gel matrix). BioVue is the serological column agglutination platform of Ortho-Clinical Diagnostics. Diamed is the serological column agglutination platform of Diamed AG.

Test [2] deals with Miltenberger Antibody Positive Panel. The test can be described thus: Reactivity of modified RBCs against the Miltenberger Antibody Positive Panel. Set-up: key to score vs panel 15 TAP2 / score vs panel 4 T7202 / score vs panel 8 T5896 / score vs panel 2 T217 / score vs panel 3 T165 / score vs panel 14 TAP1 / score vs panel 10 Mia / score vs panel 11 Mur / score vs panel 12 Gam / score vs panel 6 T6025 / score vs panel 7 T8445 / score vs panel 9 MIII / score vs panel 13 BoxH / reactivity with Panel Serum #7 (T8445) / agglutination score, Panel Serum #7 (T8445): 0 or ‘−’ no agglutination; 0 or ‘−’ no agglutination; 1+ or 3=very weak agglutination; 1+ or 3=very weak agglutination; 2+ or 5=weak agglutination; 2+ or 5=weak agglutination; 3+ or 8=moderate strong agglutination; 3+ or 8=moderate strong agglutination; 4+ or 10/12=strong agglutination; 4+ or 10/12=strong agglutination; 4+ or 10/12=strong agglutination. Conditions: for score vs panel 2 T217 / score vs panel 3 T165 / score vs panel 4 T7202 / score vs panel 8 T5896 / score vs panel 14 TAP1 / score vs panel 15 TAP2: Table 8, construct 50 μg/ml; for sensitivity and specificity towards a human polyclonal antibody panel compared with sequence 1: MUT peptides, prior art sequence 1.

In test [3] the test system is TAP1 serum (Taiwan Miltenberger antibody positive sample). As to the kind of experiment: Anti-MUT serum (TAP1) reactivity of modified RBCs (saline and AHG). The conditions noted are these: construct 50 μg/ml (2 hours, 37° C.). Set-up: key: 0 or ‘−’ no agglutination; 0 or ‘−’ no agglutination; 1+ or 3=very weak agglutination; 1+ or 3=very weak agglutination; 2+ or 5=weak agglutination; 2+ or 5=weak agglutination; 3+ or 8=moderate strong agglutination; 3+ or 8=moderate strong agglutination; 4+ or 10/12=strong agglutination; 4+ or 10/12=strong agglutination; 4+ or 10/12=strong agglutination. As to the method:
as §1, §2

The subject of test [4] is antibody negative serums. As to the kind of experiment: False positive reactions of modified RBCs with antibody negative serums/plasma. Conditions: for Reaction score BioVue AHG, PAC sample 47 / Reaction score BioVue AHG, PAC sample 48 / Reaction score BioVue AHG, PAC sample 51 / Reaction score BioVue AHG, PAC samples 1-46, 49, 50, 52, 53: blood donor plasma, construct 50 μg/ml (2 hours, 37° C.); for % False Positives: panel of blood donor plasma samples (PAC), BioVue AHG, construct 50 μg/ml. Set-up: key to Reaction score BioVue AHG, PAC samples 1-46, 49, 50, 52, 53 / Reaction score BioVue AHG, PAC sample 47 / Reaction score BioVue AHG, PAC sample 48 / Reaction score BioVue AHG, PAC sample 51 / agglutination score, T series serum 2 / agglutination score, T series serum 42 / agglutination score, T series serum 63 / agglutination score, T series serum 62 / agglutination score, T series serum 7 / agglutination score, T series serum 20 / agglutination score, T series serum 48 / agglutination score, T series serum 22 / agglutination score, T series serum 39 / agglutination score, T series serum 23 / agglutination score, T series serum 30 / agglutination score, T series serum 4 / agglutination score, T series serum 31 / agglutination score, T series serum 44 / agglutination score, T series serum 61 / agglutination score, T series serum 18 / agglutination score, T series serum 21 / agglutination score, T series serum 28 / agglutination score, T series serum 55 / agglutination score, false positive serum T18 / agglutination score, false positive serum T21 / agglutination score, false positive serum T28 / agglutination score, false positive serum T55 / agglutination score, false positive serum T78 / agglutination score, false positive serum T92: 0 or ‘−’ no agglutination; 0 or ‘−’ no agglutination; 1+ or 3=very weak agglutination; 1+ or 3=very weak agglutination; 2+ or 5=weak agglutination; 2+ or 5=weak agglutination; 3+ or 8=moderate strong agglutination; 3+ or 8=moderate strong agglutination; 4+ or 10/12=strong agglutination; 4+ or 10/12=strong agglutination; 4+ or 10/12=strong agglutination.

Regarding “M33: DOPE peptide-lipid construct: MUTK peptide QTNDKHKRDTY, leader c, spacer CMG(2) (QTNDKHKRDTYC; also: DOPE peptide-lipid construct via leader Cys, spacer CMG(2))”, in test [1], the “BioVue score vs TAP1” value worked out at 3, the “BioVue score vs positive sample 2 T217 (T)” value turned out to be 0, the “BioVue score vs positive sample 3 T165 (Mur)” value is on record as 0 and the “BioVue score vs positive sample 4 T7202 (M)” value is listed as 0. Besides, the “BioVue score vs positive sample 8 T5896 (M + K + Mur)” value in test [1] was 0. In test [2], the “score vs panel 2 T217” value was 0, the “score vs panel 3 T165” value is on record as 0, the “score vs panel 4 T7202” value came out at 0 and the “score vs panel 8 T5896” value amounted to 0. In test [2], the “score vs panel 14 TAP1” value is 8 and the “score vs panel 15 TAP2” value is reported as 0. In test [3], the “Reactivity with anti-MUT serum TAP1” value turned out to be 3.
Regarding “M34: DOPE peptide-lipid construct: MUTK peptide SSQTNDKHKR, leader c, spacer CMG(2) (SSQTNDKHKRC; also: DOPE peptide-lipid construct via leader Cys, spacer CMG(2))”, in test [1], the “BioVue score vs TAP1” value turned out to be 5, the “BioVue score vs positive sample 2 T217 (T)” value turned out to be 0, the “BioVue score vs positive sample 3 T165 (Mur)” value amounted to 0 and the “BioVue score vs positive sample 4 T7202 (M)” value is reported as 0. Besides, the “BioVue score vs positive sample 8 T5896 (M + K + Mur)” value in test [1] was 0. In addition, in test [2], the “score vs panel 2 T217” value was determined as 0, the “score vs panel 3 T165” value is listed as 0, the “score vs panel 4 T7202” value is recorded as 0 and the “score vs panel 8 T5896” value stood at 0. Further, in test [2], the “score vs panel 14 TAP1” value worked out at 3 and the “score vs panel 15 TAP2” value was 0. Besides, in test [3], the “Reactivity with anti-MUT serum TAP1” value worked out at 5. In test [4], the “Reaction score BioVue AHG, PAC sample 47” value is listed as 0; the “Reaction score BioVue AHG, PAC sample 48” value was found to be 3; the “Reaction score BioVue AHG, PAC sample 51” value was determined as 5; the “Reaction score BioVue AHG, PAC samples 1-46, 49, 50, 52, 53” value (from here on “Reaction score BioVue AHG … 53”) turned out to be 0. The “% False Positives” value in test [4] amounted to 3.8%.
Take “M35: DOPE peptide-lipid construct: MUTK peptide QTNDKHKRDT, leader c, spacer CMG(2) (QTNDKHKRDTC; also: DOPE peptide-lipid construct via leader Cys, spacer CMG(2))”: in test [1], the “BioVue score vs TAP1” value turned out to be 5, the “BioVue score vs positive sample 2 T217 (T)” value stood at 0, the “BioVue score vs positive sample 3 T165 (Mur)” value was 0 and the “BioVue score vs positive sample 4 T7202 (M)” value worked out at 0. In addition, the “BioVue score vs positive sample 8 T5896 (M + K + Mur)” value in test [1] is given as 0. In addition, in test [2], the “score vs panel 2 T217” value was determined as 0, the “score vs panel 3 T165” value is recorded as 0, the “score vs panel 4 T7202” value was found to be 0 and the “score vs panel 8 T5896” value worked out at 0. In addition, in test [2], the “score vs panel 14 TAP1” value was found to be 5 and the “score vs panel 15 TAP2” value is reported as 0. For the same substance, in test [3], the “Reactivity with anti-MUT serum TAP1” value is on record as 5.
“M36: DOPE peptide-lipid construct: MUTK peptide SQTNDKHKRDT, leader c, spacer CMG(2) (SQTNDKHKRDTC; also: DOPE peptide-lipid construct via leader Cys, spacer CMG(2))”: in test [1], the “BioVue score vs TAP1” value is listed as 8, the “BioVue score vs positive sample 2 T217 (T)” value worked out at 0, the “BioVue score vs positive sample 3 T165 (Mur)” value was 0 and the “BioVue score vs positive sample 4 T7202 (M)” value came out at 0. Moreover, in test [1], the “BioVue score vs positive sample 8 T5896 (M + K + Mur)” value is 0. Moreover, in test [2], the “sensitivity and specificity towards a human polyclonal antibody panel compared with sequence 1” value is “superior sensitivity and specificity”; the “score vs panel 2 T217” value is 0; the “score vs panel 3 T165” value came out at 0; the “score vs panel 4 T7202” value is given as 0. For the same substance, in test [2], the “score vs panel 8 T5896” value stood at 0, the “score vs panel 14 TAP1” value is reported as 8 and the “score vs panel 15 TAP2” value is recorded as 0. For the same substance, the “Reactivity with anti-MUT serum TAP1” value in test [3] was 8. In test [4], the “Reaction score BioVue AHG, PAC sample 47” value came out at 3; the “Reaction score BioVue AHG, PAC sample 48” value worked out at 5; the “Reaction score BioVue AHG, PAC sample 51” value worked out at 0; the “Reaction score BioVue AHG … 53” value was 0. Further, the “% False Positives” value in test [4] was 3.8%.
With “M37: DOPE peptide-lipid construct: MUTK peptide TNDKHKRDTYP, leader c, spacer CMG(2) (TNDKHKRDTYPC; also: DOPE peptide-lipid construct via leader Cys, spacer CMG(2))”, in test [1], the “BioVue score vs TAP1” value was 8, the “BioVue score vs positive sample 2 T217 (T)” value was 5, the “BioVue score vs positive sample 3 T165 (Mur)” value came to 0 and the “BioVue score vs positive sample 4 T7202 (M)” value is 8. Besides, the “BioVue score vs positive sample 8 T5896 (M + K + Mur)” value in test [1] is reported as 0. In test [2], the “sensitivity and specificity towards a human polyclonal antibody panel compared with sequence 1” value is “superior sensitivity and specificity”; the “score vs panel 2 T217” value amounted to 5; the “score vs panel 3 T165” value came to 0; the “score vs panel 4 T7202” value turned out to be 8. Besides, in test [2], the “score vs panel 8 T5896” value came out at 0, the “score vs panel 14 TAP1” value was found to be 8 and the “score vs panel 15 TAP2” value worked out at 0. Also, the “Reactivity with anti-MUT serum TAP1” value in test [3] worked out at 8. In test [4], the “Reaction score BioVue AHG, PAC sample 47” value is recorded as 0; the “Reaction score BioVue AHG, PAC sample 48” value came out at 0; the “Reaction score BioVue AHG, PAC sample 51” value was determined as 0; the “Reaction score BioVue AHG … 53” value amounted to 0. Further, in test [4], the “% False Positives” value came to 0%.
